The text below walks through data of publication PMC2923446 (Virology, 2009).

pEC50: −log10 of the molar value. No end group written: not given here.

Series [1] relates to HeLa cells. In words: Cytotoxicity after low pH wash. The conditions noted are these: PBS pH 7 or 5, 150 μM EB 1 hr 37°C, n = 6. Type of series: cell-based.
The subject of series [2] is Vaccinia virus. The conditions noted are these: 1 h.
In series [3] the test system is recombinant vaccinia virus vMJ343. The conditions noted are these: 1 h.
In series [4] the test system is vMJ343. The conditions noted are these: 1 h.
The subject of series [5] is HeLa or Vero cells. Conditions: ref Akkarawongsa et al., 2006; cited from earlier work.
Series [6] has as its system HeLa cells. Conditions: concentrations as high as 100 μM; ref Akkarawongsa et al., 2006; cited from earlier work.
The subject of series [7] is Vero cells. Conditions: concentrations as high as 100 μM; ref Akkarawongsa et al., 2006; cited from earlier work.
Series [8] concerns mouse corneas. Conditions: applied at a concentration of 6.1 mM; ref Akkarawongsa et al., 2006; cited from earlier work.

In general, pEC50 refers to −log10 of the EC50, conventionally taken in molar units. RRKKAAVALLPAVLLALLAP [EB]: in series [1], the “Toxicity of low pH treatment and subsequent EB exposure” value is “not toxic to the cells”. Also, the pEC50 in series [2] is 4.82; in series [3], 4.35; in series [4] it was roughly 4.35. For the same sequence, the “CC50 (50% cytotoxic concentration)” value in series [5] is greater than 100 µM. For the same sequence, in series [6], the “Cytotoxicity to HeLa cells” value was “not cytotoxic”. For the same sequence, the “Cytotoxicity to Vero cells” value in series [7] is “not cytotoxic”. In addition, the “Cytotoxic effects on mouse corneas” value in series [8] was “no cytotoxic effects”.

Turning to “RRKKLAALPLVLAAPLAVLA [EBX, reference compound]”, in series [2], the pEC50 is 3.82. In series [5], the “CC50 (50% cytotoxic concentration)” value is greater than 100 µM.
